Experimental data reported in article PMC9864331, “Biosynthesis of α-Bisabolol by Farnesyl Diphosphate Synthase and α-Bisabolol Synthase and Their Related Transcription Factors in Matricaria recutita L” (International Journal of Molecular Sciences, 2023).

Target: T1, MrBBS (Matricaria chamomilla, UniProt A0A0A0RIB3)
T1 construct: pCold TF (trigger factor) fusion, E. coli BL21(DE3) pLysS; assayed as crude enzyme
T1 sequence (A0A0A0RIB3 1-572): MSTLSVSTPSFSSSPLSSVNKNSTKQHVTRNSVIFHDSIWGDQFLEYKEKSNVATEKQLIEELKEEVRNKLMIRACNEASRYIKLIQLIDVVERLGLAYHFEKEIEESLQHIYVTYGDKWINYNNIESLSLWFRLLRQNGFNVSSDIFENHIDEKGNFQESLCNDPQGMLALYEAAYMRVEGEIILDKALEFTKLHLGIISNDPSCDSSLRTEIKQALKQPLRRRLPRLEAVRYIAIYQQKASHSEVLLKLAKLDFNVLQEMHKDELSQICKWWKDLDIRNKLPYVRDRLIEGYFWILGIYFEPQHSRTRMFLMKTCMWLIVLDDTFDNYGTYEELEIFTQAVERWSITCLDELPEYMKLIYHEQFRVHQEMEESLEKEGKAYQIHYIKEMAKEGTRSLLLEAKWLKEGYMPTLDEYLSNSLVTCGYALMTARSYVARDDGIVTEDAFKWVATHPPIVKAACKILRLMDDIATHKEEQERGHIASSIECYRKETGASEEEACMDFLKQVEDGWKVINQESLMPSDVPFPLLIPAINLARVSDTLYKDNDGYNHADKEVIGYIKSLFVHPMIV
Assay: GC-MS of hexane-extracted products
Format: biochemical
Details: 100 µM FPP; 50 mM Tris-HCl pH 7.5; 10 mM MgCl2; 20 µg crude enzyme; product alpha-bisabolol

## CC(C)=CCC/C(C)=C/CC/C(C)=C/COP(=O)(O)OP(=O)(O)O [FPP]
  GC-MS of hexane-extracted products: MrBBS catalyzed the conversion of FPP into α-bisabolol
